In the CheMixHub viscosity set:
Several values for one entry are separate records, joined by “and”; a condition that tells them apart may be missing. Equal values may be shown once. ± gives the uncertainty stated by the source.

Experiment: xn = mol fraction of the nth substance listed

For `CNC(N)=O` + O, which viscosity (293.15 K, 101 kPa, x1 = 9.02e-05) is on record?
Its viscosity is 1.003 ± 0.0092 mPa·s.

And the viscosity (293.15 K, 101 kPa, x1 = 0.00018)?
Its viscosity is 1.01 ± 0.0092 mPa·s.

What about the viscosity (293.15 K, 101 kPa, x1 = 0.00027) of the same molecule?
The viscosity was 1.002 ± 0.0092 mPa·s.

What about the viscosity (293.15 K, 101 kPa, x1 = 0.00036) of the same molecule?
Its viscosity is 1.007 ± 0.0092 mPa·s.

And the viscosity (293.15 K, 101 kPa, x1 = 0.0005402)?
Its viscosity is 1.008 ± 0.0092 mPa·s.

What about the viscosity (293.15 K, 101 kPa, x1 = 0.00108) of the same molecule?
Its viscosity is 1.017 ± 0.0092 mPa·s.

And the viscosity (293.15 K, 101 kPa, x1 = 0.001799)?
The viscosity was 1.013 ± 0.0094 mPa·s.

What about the viscosity (293.15 K, 101 kPa, x1 = 0.004484) of the same molecule?
The viscosity was 1.036 ± 0.0095 mPa·s.

And the viscosity (298.15 K, 101 kPa, x1 = 9.02e-05)?
The viscosity was 0.8881 ± 0.0083 mPa·s.

And the viscosity (298.15 K, 101 kPa, x1 = 0.00018)?
The viscosity was 0.8936 ± 0.0084 mPa·s.

And the viscosity (298.15 K, 101 kPa, x1 = 0.00027)?
Its viscosity is 0.8933 ± 0.0083 mPa·s.

What about the viscosity (298.15 K, 101 kPa, x1 = 0.00036) of the same molecule?
The viscosity was 0.8922 ± 0.0083 mPa·s.

And the viscosity (298.15 K, 101 kPa, x1 = 0.0005402)?
Its viscosity is 0.8992 ± 0.0084 mPa·s.

What about the viscosity (298.15 K, 101 kPa, x1 = 0.00108) of the same molecule?
Its viscosity is 0.9009 ± 0.0084 mPa·s.

What about the viscosity (298.15 K, 101 kPa, x1 = 0.001799) of the same molecule?
The viscosity was 0.8963 ± 0.0083 mPa·s.

And the viscosity (298.15 K, 101 kPa, x1 = 0.004484)?
Its viscosity is 0.9188 ± 0.0086 mPa·s.

And the viscosity (303.15 K, 101 kPa, x1 = 0.00018)?
Its viscosity is 0.7986 ± 0.0076 mPa·s.

And the viscosity (303.15 K, 101 kPa, x1 = 0.00027)?
The viscosity was 0.7953 ± 0.0076 mPa·s.

What about the viscosity (303.15 K, 101 kPa, x1 = 0.00036) of the same molecule?
The viscosity was 0.798 ± 0.0076 mPa·s.

And the viscosity (303.15 K, 101 kPa, x1 = 0.0005402)?
The viscosity was 0.8003 ± 0.0077 mPa·s.

And the viscosity (303.15 K, 101 kPa, x1 = 0.00108)?
Its viscosity is 0.8032 ± 0.0077 mPa·s.

And the viscosity (303.15 K, 101 kPa, x1 = 0.001799)?
Its viscosity is 0.8075 ± 0.0075 mPa·s.

And the viscosity (303.15 K, 101 kPa, x1 = 0.004484)?
The viscosity was 0.8214 ± 0.0078 mPa·s.

For `O=C(O)C(O)C(O)C(=O)O` (configuration not stated) + O, which viscosity (298.15 K, 100 kPa, x1 = 0.003486) is on record?
Its viscosity is 0.9322 ± 0.019 mPa·s and 0.9322 ± 0.0083 mPa·s.

What about the viscosity (298.15 K, 100 kPa, x1 = 0.006751) of the same molecule?
The viscosity was 0.9765 ± 0.02 mPa·s and 0.9765 ± 0.0086 mPa·s.

And the viscosity (298.15 K, 100 kPa, x1 = 0.009818)?
The viscosity was 1.038 ± 0.022 mPa·s and 1.038 ± 0.0092 mPa·s.

And the viscosity (298.15 K, 100 kPa, x1 = 0.0127)?
The viscosity was 1.088 ± 0.023 mPa·s and 1.088 ± 0.0096 mPa·s.

And the viscosity (303.15 K, 100 kPa, x1 = 0.003486)?
The viscosity was 0.8367 ± 0.017 mPa·s and 0.8367 ± 0.0075 mPa·s.

And the viscosity (303.15 K, 100 kPa, x1 = 0.006751)?
Its viscosity is 0.8735 ± 0.018 mPa·s and 0.8735 ± 0.0078 mPa·s.

What about the viscosity (303.15 K, 100 kPa, x1 = 0.009818) of the same molecule?
Its viscosity is 0.9206 ± 0.019 mPa·s and 0.9206 ± 0.0082 mPa·s.

What about the viscosity (303.15 K, 100 kPa, x1 = 0.0127) of the same molecule?
The viscosity was 0.9696 ± 0.02 mPa·s and 0.9696 ± 0.0086 mPa·s.

And the viscosity (308.15 K, 100 kPa, x1 = 0.003486)?
The viscosity was 0.7533 ± 0.016 mPa·s and 0.7533 ± 0.0068 mPa·s.

And the viscosity (308.15 K, 100 kPa, x1 = 0.006751)?
The viscosity was 0.7864 ± 0.016 mPa·s and 0.7864 ± 0.0071 mPa·s.

And the viscosity (308.15 K, 100 kPa, x1 = 0.009818)?
Its viscosity is 0.8235 ± 0.017 mPa·s and 0.8235 ± 0.0074 mPa·s.

What about the viscosity (308.15 K, 100 kPa, x1 = 0.0127) of the same molecule?
The viscosity was 0.8645 ± 0.018 mPa·s and 0.8645 ± 0.0078 mPa·s.

And the viscosity (313.15 K, 100 kPa, x1 = 0.003486)?
Its viscosity is 0.6829 ± 0.014 mPa·s and 0.6829 ± 0.0063 mPa·s.

And the viscosity (313.15 K, 100 kPa, x1 = 0.006751)?
Its viscosity is 0.7098 ± 0.015 mPa·s and 0.7098 ± 0.0065 mPa·s.

And the viscosity (313.15 K, 100 kPa, x1 = 0.009818)?
The viscosity was 0.7408 ± 0.015 mPa·s and 0.7408 ± 0.0068 mPa·s.

What about the viscosity (313.15 K, 100 kPa, x1 = 0.0127) of the same molecule?
The viscosity was 0.7756 ± 0.016 mPa·s and 0.7756 ± 0.0071 mPa·s.

What about the viscosity (318.15 K, 100 kPa, x1 = 0.003486) of the same molecule?
The viscosity was 0.6209 ± 0.013 mPa·s and 0.6209 ± 0.0059 mPa·s.

And the viscosity (318.15 K, 100 kPa, x1 = 0.006751)?
Its viscosity is 0.6435 ± 0.013 mPa·s and 0.6435 ± 0.006 mPa·s.

And the viscosity (318.15 K, 100 kPa, x1 = 0.009818)?
The viscosity was 0.6707 ± 0.014 mPa·s and 0.6707 ± 0.0063 mPa·s.

And the viscosity (318.15 K, 100 kPa, x1 = 0.0127)?
Its viscosity is 0.6996 ± 0.015 mPa·s and 0.6996 ± 0.0065 mPa·s.

What does the source list for `COc1ccccc1` + CC(C)CO?
viscosity (303.15 K, 101.33 kPa, x1 = 0.1001): 1.789 ± 0.016 mPa·s; viscosity (303.15 K, 101.33 kPa, x1 = 0.2001): 1.326 ± 0.012 mPa·s; viscosity (303.15 K, 101.33 kPa, x1 = 0.2999): 1.157 ± 0.01 mPa·s; viscosity (303.15 K, 101.33 kPa, x1 = 0.4001): 1.069 ± 0.01 mPa·s; viscosity (303.15 K, 101.33 kPa, x1 = 0.5): 1.011 ± 0.009 mPa·s; viscosity (303.15 K, 101.33 kPa, x1 = 0.6001): 0.969 ± 0.009 mPa·s; viscosity (303.15 K, 101.33 kPa, x1 = 0.7): 0.951 ± 0.008 mPa·s; viscosity (303.15 K, 101.33 kPa, x1 = 0.8001): 0.934 ± 0.008 mPa·s; viscosity (303.15 K, 101.33 kPa, x1 = 0.9002): 0.921 ± 0.008 mPa·s; viscosity (313.15 K, 101.33 kPa, x1 = 0.1001): 1.355 ± 0.012 mPa·s; viscosity (313.15 K, 101.33 kPa, x1 = 0.2001): 1.064 ± 0.01 mPa·s; viscosity (313.15 K, 101.33 kPa, x1 = 0.2999): 0.933 ± 0.009 mPa·s; viscosity (313.15 K, 101.33 kPa, x1 = 0.4001): 0.862 ± 0.008 mPa·s; viscosity (313.15 K, 101.33 kPa, x1 = 0.5): 0.845 ± 0.008 mPa·s; viscosity (313.15 K, 101.33 kPa, x1 = 0.6001): 0.831 ± 0.007 mPa·s; viscosity (313.15 K, 101.33 kPa, x1 = 0.7): 0.816 ± 0.007 mPa·s; viscosity (313.15 K, 101.33 kPa, x1 = 0.8001): 0.803 ± 0.007 mPa·s; viscosity (313.15 K, 101.33 kPa, x1 = 0.9002): 0.792 ± 0.007 mPa·s; viscosity (323.15 K, 101.33 kPa, x1 = 0.1001): 1.063 ± 0.01 mPa·s; viscosity (323.15 K, 101.33 kPa, x1 = 0.2001): 0.829 ± 0.008 mPa·s; viscosity (323.15 K, 101.33 kPa, x1 = 0.2999): 0.768 ± 0.007 mPa·s; viscosity (323.15 K, 101.33 kPa, x1 = 0.4001): 0.743 ± 0.007 mPa·s; viscosity (323.15 K, 101.33 kPa, x1 = 0.5): 0.736 ± 0.007 mPa·s; viscosity (323.15 K, 101.33 kPa, x1 = 0.6001): 0.731 ± 0.007 mPa·s; viscosity (323.15 K, 101.33 kPa, x1 = 0.7): 0.718 ± 0.007 mPa·s; viscosity (323.15 K, 101.33 kPa, x1 = 0.8001): 0.708 ± 0.006 mPa·s; viscosity (323.15 K, 101.33 kPa, x1 = 0.9002): 0.697 ± 0.006 mPa·s

With `C1CCOC1` + CC(C)CC(C)(C)C as the molecule, how does the viscosity (298.15 K, 101 kPa, x1 = 0.1001) read?
The viscosity was 0.479 ± 0.013 mPa·s.

What about the viscosity (298.15 K, 101 kPa, x1 = 0.2) of the same molecule?
Its viscosity is 0.477 ± 0.013 mPa·s.

And the viscosity (298.15 K, 101 kPa, x1 = 0.3)?
The viscosity was 0.475 ± 0.013 mPa·s.

And the viscosity (298.15 K, 101 kPa, x1 = 0.4)?
The viscosity was 0.474 ± 0.013 mPa·s.

What about the viscosity (298.15 K, 101 kPa, x1 = 0.5) of the same molecule?
The viscosity was 0.473 ± 0.013 mPa·s.

What about the viscosity (298.15 K, 101 kPa, x1 = 0.6) of the same molecule?
The viscosity was 0.472 ± 0.013 mPa·s.

And the viscosity (298.15 K, 101 kPa, x1 = 0.7)?
Its viscosity is 0.472 ± 0.013 mPa·s.

And the viscosity (298.15 K, 101 kPa, x1 = 0.8)?
The viscosity was 0.471 ± 0.013 mPa·s.

What about the viscosity (298.15 K, 101 kPa, x1 = 0.9) of the same molecule?
Its viscosity is 0.471 ± 0.013 mPa·s.

And the viscosity (308.15 K, 101 kPa, x1 = 0.1001)?
The viscosity was 0.433 ± 0.012 mPa·s.

And the viscosity (308.15 K, 101 kPa, x1 = 0.2)?
Its viscosity is 0.432 ± 0.012 mPa·s.

And the viscosity (308.15 K, 101 kPa, x1 = 0.3)?
Its viscosity is 0.432 ± 0.012 mPa·s.

And the viscosity (308.15 K, 101 kPa, x1 = 0.4)?
The viscosity was 0.431 ± 0.012 mPa·s.

What about the viscosity (308.15 K, 101 kPa, x1 = 0.5) of the same molecule?
The viscosity was 0.431 ± 0.012 mPa·s.

What about the viscosity (308.15 K, 101 kPa, x1 = 0.6) of the same molecule?
The viscosity was 0.432 ± 0.012 mPa·s.

And the viscosity (308.15 K, 101 kPa, x1 = 0.7)?
The viscosity was 0.432 ± 0.012 mPa·s.

And the viscosity (308.15 K, 101 kPa, x1 = 0.8)?
The viscosity was 0.432 ± 0.012 mPa·s.

What about the viscosity (308.15 K, 101 kPa, x1 = 0.9) of the same molecule?
The viscosity was 0.432 ± 0.012 mPa·s.

Which results are given for `CC1COC(=O)O1` (configuration not stated) + CC(C)=O?
viscosity (303.15 K, 101.3 kPa, x1 = 0.088): 0.3518 ± 0.0072 mPa·s; viscosity (303.15 K, 101.3 kPa, x1 = 0.1784): 0.4187 ± 0.0082 mPa·s; viscosity (303.15 K, 101.3 kPa, x1 = 0.2713): 0.5016 ± 0.0094 mPa·s; viscosity (303.15 K, 101.3 kPa, x1 = 0.3668): 0.6038 ± 0.011 mPa·s; viscosity (303.15 K, 101.3 kPa, x1 = 0.4647): 0.7316 ± 0.013 mPa·s; viscosity (303.15 K, 101.3 kPa, x1 = 0.5657): 0.8959 ± 0.015 mPa·s; viscosity (303.15 K, 101.3 kPa, x1 = 0.6697): 1.104 ± 0.018 mPa·s; viscosity (303.15 K, 101.3 kPa, x1 = 0.7768): 1.371 ± 0.023 mPa·s; viscosity (303.15 K, 101.3 kPa, x1 = 0.8864): 1.71 ± 0.028 mPa·s
